Measured values from patent publication US8415342B2, “Besifloxacin ophthalmic composition for the treatment or control of infection” (Bausch & Lomb Incorporated, priority 2008, dated 2013).
≈ marks a conversion by molar mass, not a printed value. Read-outs that look alike come from different tables or passages of the source.

Experiments:
Assay type in all cases: cell-based
Viridans streptococci = test: MIC, CLSI broth microdilution, clinical isolates; settings: Viridans streptococci (N = 156)
Streptococcus pneumoniae = test: MIC, CLSI broth microdilution, clinical isolates
Streptococcus pyogenes = test: MIC, CLSI broth microdilution, clinical isolates; settings: Streptococcus pyogenes (N = 101)
Moraxella catarrhalis = test: MIC, CLSI broth microdilution, clinical isolates; settings: Moraxella catarrhalis (N = 101)
[1] = test system: Lancefield group C, F, G streptococci; test: MIC, CLSI broth microdilution, clinical isolates; settings: G streptococci (N = 50)
Legionella pneumophila = test: microbe, parasite or virus in culture
Staphylococcus hominis = test: MIC, CLSI broth microdilution, clinical isolates; settings: Staphylococcus hominis (N = 50)
[2] = test system: Staphylococcus saprophyticus; test: MIC, CLSI broth microdilution, clinical isolates; settings: Staphylococcus saprophyticus (N = 101)
S. epidermidis = test: MIC of clinical trial isolates, Studies 373, 433, 434; settings: Staphylococcus epidermidis, read-out: MIC90
Staphylococcus aureus = test: MIC, CLSI broth microdilution, clinical isolates; settings: for MIC50 / MIC90: Staphylococcus aureus
S. aureus = test: MIC of clinical trial isolates, Studies 373, 433, 434; settings: Staphylococcus aureus
[3] = test system: Staphylococcus epidermidis; test: MIC, CLSI broth microdilution, clinical isolates; settings: for MIC50: Staphylococcus epidermidis
Morganella morganii = test: MIC, CLSI broth microdilution, clinical isolates; settings: Morganella morganii (N = 51)
Klebsiella oxytoca = test: MIC, CLSI broth microdilution, clinical isolates; settings: Klebsiella oxytoca (N = 50)
Haemophilus influenzae = test: MIC, CLSI broth microdilution, clinical isolates; settings: for MIC50 / MIC90: Haemophilus influenzae
Streptococcus agalactiae = test: MIC, CLSI broth microdilution, clinical isolates; settings: Streptococcus agalactiae (N = 100)
Citrobacter koseri = test: MIC, CLSI broth microdilution, clinical isolates; settings: Citrobacter koseri (N = 100)
Staphylococcus warneri = test: MIC, CLSI broth microdilution, clinical isolates; settings: Staphylococcus warneri (N = 50)
[4] = test system: Staphylococcus haemolyticus; test: MIC, CLSI broth microdilution, clinical isolates; settings: Staphylococcus haemolyticus (N = 101)
[5] = test system: Staphylococcus lugdunensis; test: MIC, CLSI broth microdilution, clinical isolates; settings: Staphylococcus lugdunensis (N = 15)
H. influenzae = test: MIC and MBC:MIC ratio, recent ocular isolates; settings: H. influenzae (N = 40), recent ocular isolates
Text: The success of in vivo antimicrobial action depends to a large extent on the host's defense mechanisms, which ultimately sequester and kill the microorganisms that have been reduced by the bacteriostatic/bactericidal action of the antibacterial agent. Thus, it is also of interest to profile the bactericidal activity of antimicrobial agents. The assessment of in vitro bactericidal activity can be accomplished in multiple ways, for example, the time-kill method or the determination of the minimum bactericidal concentration (MBC). […] Bactericidal agents are characterized by low MBC:MIC ratios.

[6] = Streptococcus pneumoniae (PSSP, N = 31)
[7] = Staphylococcus aureus (CNS, N = 16)
[8] = Staphylococcus aureus (CS, N = 14)
[9] = Staphylococcus aureus (all phenotypes, N = 30)
[10] = MRSA, Staphylococcus aureus (MRSA, N = 11)
[11] = MSSA, Staphylococcus aureus (MSSA, N = 19)
[12] = Staphylococcus epidermidis (CNS, N = 6)
[13] = Staphylococcus epidermidis (CS, N = 9)
[14] = Staphylococcus epidermidis (MSSE, N = 6)
[15] = Staphylococcus epidermidis (all phenotypes, N = 15)
[16] = Haemophilus influenzae (all phenotypes, N = 40)
[17] = Haemophilus influenzae (bla negative, N = 24)
[18] = Haemophilus influenzae (bla positive, N = 16)

SMILES: CC[C@H]1OC(=O)[C@H](C)[C@@H](O[C@H]2C[C@@](C)(OC)[C@@H](O)[C@H](C)O2)[C@H](C)[C@@H](O[C@@H]2O[C@H](C)C[C@H](N(C)C)[C@H]2O)[C@](C)(O)C[C@@H](C)CN(C)[C@H](C)[C@@H](O)[C@]1(C)O [Azithromycin]
- % S (Viridans streptococci): 53.2%
- MIC50 (Viridans streptococci; read-out: MIC50): 0.06 µg/mL (≈ 0.0801 µM)
- MIC90 (Viridans streptococci; read-out: MIC90): > 8 µg/mL
- % S (Streptococcus pneumoniae; Streptococcus pneumoniae (PISP, N = 2)): 0.0%
- % S (Streptococcus pneumoniae; Streptococcus pneumoniae (PRSP, N = 2)): 50.0%
- % S (Streptococcus pneumoniae; [6]): 67.7%
- MIC50 (Streptococcus pneumoniae; [6]): 0.06 µg/mL (≈ 0.0801 µM)
- MIC90 (Streptococcus pneumoniae; [6]): >8 µg/mL
- % S (Streptococcus pneumoniae; Streptococcus pneumoniae (all phenotypes, N = 35)): 62.9%
- MIC50 (Streptococcus pneumoniae; Streptococcus pneumoniae (all phenotypes, N = 35), read-out: MIC50): 0.06 µg/mL (≈ 0.0801 µM)
- MIC90 (Streptococcus pneumoniae; Streptococcus pneumoniae (all phenotypes, N = 35), read-out: MIC90): > 8 µg/mL
- % S (Streptococcus pyogenes): 85.1%
- MIC50 (Streptococcus pyogenes; read-out: MIC50): 0.06 µg/mL (≈ 0.0801 µM)
- MIC90 (Streptococcus pyogenes; read-out: MIC90): 8 µg/mL (≈ 10.7 µM)
- % S (Moraxella catarrhalis): 100.0%
- MIC50 (Moraxella catarrhalis): 0.03 µg/mL (≈ 0.0401 µM)
- MIC90 (Moraxella catarrhalis): 0.03 µg/mL (≈ 0.0401 µM)
- MIC Range (Moraxella catarrhalis): 0.015 to 0.06 µg/mL
- % S [1]: 74.0%
- MIC50 ([1]; read-out: MIC50): 0.06 µg/mL (≈ 0.0801 µM)
- MIC90 ([1]; read-out: MIC90): > 8 µg/mL
- MIC50 (Legionella pneumophila; Legionella pneumophila): 0.12 µg/mL (≈ 0.16 µM)
- MIC90 (Legionella pneumophila; Legionella pneumophila): 1 µg/mL (≈ 1.34 µM)
- MIC Range (Legionella pneumophila; Legionella pneumophila (N = 50)): 0.03 to 1 µg/mL
- % S (Staphylococcus hominis): 16.0%
- MIC50 (Staphylococcus hominis): > 8 µg/mL
- MIC90 (Staphylococcus hominis): > 8 µg/mL
- % S [2]: 54.5%
- MIC50 [2]: 1 µg/mL (≈ 1.34 µM)
- MIC90 [2]: > 8 µg/mL
- MIC90 (S. epidermidis; MRSE, S. epidermidis MRSE-CR, N 24): > 8 µg/mL
- MIC90 (S. epidermidis; MRSE, S. epidermidis MRSE-CS, N 27): > 8 µg/mL
- MIC90 (S. epidermidis; S. epidermidis MSSE-CR, N 10): > 8 µg/mL
- MIC90 (S. epidermidis; S. epidermidis MSSE-CS, N 50): > 8 µg/mL
- % S (Staphylococcus aureus; [7]): 43.8%
- % S (Staphylococcus aureus; [8]): 64.3%
- % S (Staphylococcus aureus; Staphylococcus aureus (MRSA, N = 11)): 9.1%
- % S (Staphylococcus aureus; Staphylococcus aureus (MSSA, N = 19)): 78.9%
- % S (Staphylococcus aureus; [9]): 53.3%
- MIC50 (Staphylococcus aureus; [10]): > 8 µg/mL
- MIC90 (Staphylococcus aureus; [10]): > 8 µg/mL
- MIC50 (Staphylococcus aureus; [11]): 1 µg/mL (≈ 1.34 µM)
- MIC90 (Staphylococcus aureus; [11]): > 8 µg/mL
- MIC50 (Staphylococcus aureus; [7]): > 8 µg/mL
- MIC90 (Staphylococcus aureus; [7]): > 8 µg/mL
- MIC50 (Staphylococcus aureus; [8]): 1 µg/mL (≈ 1.34 µM)
- MIC90 (Staphylococcus aureus; [8]): > 8 µg/mL
- MIC50 (Staphylococcus aureus; [9]): 1 µg/mL (≈ 1.34 µM)
- MIC90 (Staphylococcus aureus; [9]): > 8 µg/mL
- MIC90 (S. aureus; MRSA, S. aureus MRSA-CR, N 17, read-out: MIC90): > 8 µg/mL
- MIC90 (S. aureus; MRSA, S. aureus MRSA-CS, N 9, read-out: MIC90 (due to limited isolates, highest MIC value is given)): > 8 µg/mL
- MIC90 (S. aureus; MSSA, S. aureus MSSA-CR, N 17, read-out: MIC90): > 8 µg/mL
- MIC90 (S. aureus; MSSA, S. aureus MSSA-CS, N 144, read-out: MIC90): > 8 µg/mL
- % S [3, 12]: 16.7%
- % S [3, 13]: 33.3%
- % S ([3]; Staphylococcus epidermidis (MRSE, N = 9)): 0.0%
- % S [3, 14]: 66.7%
- % S [3, 15]: 26.7%
- MIC90 [3, 15]: > 8 µg/mL
- MIC50 ([3]; MRSE, Staphylococcus epidermidis (MRSE, N = 9)): > 8 µg/mL
- MIC50 [3, 12]: > 8 µg/mL
- MIC50 [3, 13]: > 8 µg/mL
- MIC50 [3, 14]: 0.5 µg/mL (≈ 0.668 µM)
- MIC50 [3, 15]: > 8 µg/mL
- MIC50 (Morganella morganii): > 8 µg/mL
- MIC90 (Morganella morganii): > 8 µg/mL
- MIC50 (Klebsiella oxytoca): > 8 µg/mL
- MIC90 (Klebsiella oxytoca): > 8 µg/mL
- % S (Haemophilus influenzae; [16]): 100.0%
- MIC Range (Haemophilus influenzae; [16]): ≦0.004-2 μg/mL
- % S (Haemophilus influenzae; [17]): 100.0%
- MIC Range (Haemophilus influenzae; [17]): ≦0.004-2 μg/mL
- % S (Haemophilus influenzae; [18]): 100.0%
- MIC Range (Haemophilus influenzae; [18]): 0.06 to 1 µg/mL
- MIC50 (Haemophilus influenzae; [16]): 0.5 µg/mL (≈ 0.668 µM)
- MIC90 (Haemophilus influenzae; [16]): 1 µg/mL (≈ 1.34 µM)
- MIC50 (Haemophilus influenzae; [17]): 0.5 µg/mL (≈ 0.668 µM)
- MIC90 (Haemophilus influenzae; [17]): 2 µg/mL (≈ 2.67 µM)
- MIC50 (Haemophilus influenzae; [18]): 0.5 µg/mL (≈ 0.668 µM)
- MIC90 (Haemophilus influenzae; [18]): 1 µg/mL (≈ 1.34 µM)
- % S (Streptococcus agalactiae): 73.0%
- MIC50 (Streptococcus agalactiae; read-out: MIC50): 0.06 µg/mL (≈ 0.0801 µM)
- MIC90 (Streptococcus agalactiae; read-out: MIC90): > 8 µg/mL
- MIC50 (Citrobacter koseri): 8 µg/mL (≈ 10.7 µM)
- MIC90 (Citrobacter koseri): > 8 µg/mL
- % S (Staphylococcus warneri): 34.0%
- MIC50 (Staphylococcus warneri): > 8 µg/mL
- MIC90 (Staphylococcus warneri): > 8 µg/mL
- % S [4]: 26.7%
- MIC50 [4]: > 8 µg/mL
- MIC90 [4]: > 8 µg/mL
- % S [5]: 46.7%
- MIC50 [5]: > 8 µg/mL
- MIC90 [5]: > 8 µg/mL
- % S (susceptible isolates, CLSI) (H. influenzae): 100.0%
- MIC Range (H. influenzae): ≦0.004-2 μg/mL
- MIC50 (H. influenzae; Haemophilus influenzae): 0.5 µg/mL
- MIC90 (H. influenzae; Haemophilus influenzae): 1 µg/mL
